Measurements taken from patent publication US20070066801A1 (priority 2003, published 2007).

Tested on: mutant F. novicida knock-outs
Type: binding, Francisella novicida

TSITPWFFLSRP [phage 4-4-2]
expected binding of phage to knock-out mutants inactivated for the cell surface marker: absence of specific binding
